We go through four compounds from patent publication EP0400562A1, “Pyrrolopyrimidines, their production and use as tumoricidal agents” (Takeda Chemical Industries, Ltd., priority 1989, dated 1990).

≈ marks a conversion by molar mass, not a printed value.

In the test the test system is Human epidermoid carcinoma KB cells. Briefly: cell growth inhibiting effect in KB cells (MTT method). The test is classed as cell-based. Conditions: 72 hours culture with compound, absorbance at 590nm, concentration required to decrease the number of cells in the untreated control group by 50%. As to the method:
The cell growth inhibiting effect (IC₅₀)of the compounds obtained in the Examples described below in KB cells was determined by the following method.
Human epidermoid carcinoma KB cells (1 x 10⁴ cells/ml) prepared according to a conventional method were inoculated into each well of the 96-microwell plate (0.1ml in a well) and subjected to standing culture at 37°C under 5% CO₂ for 24 hours. To this was added a solution of one of the compounds obtained in the Examples in 10% MEM (Nissui Pharmaceutical Co. Ltd. Japan), and subjected again to standing culture at 37°C under 5% CO₂ for 72 hours. Then the culture was pipetted out, and another 0.1ml of the solution of MTT (Dojin Laboratories Japan) in 10 % MEM (1.0mg/ml) was added and incubated at 37°C for 4 hours. Then 0.1ml of the […] (Wako Pure Chemicals, Japan) was added and incubated at 37°C for further 24 hours. The absorbance at 590nm was measured and the IC₅₀ value of the compound was defined as the concentration of the compound required to decrease the number of cells in the untreated control group by 50%.
(In general: Tetrazolium assays rely on reduction of a dye to a coloured formazan, in cell work by metabolically active cells.)

`CN(CCc1c[nH]c2nc(N)nc(N)c12)c1ccc(C(=O)N[C@@H](CCC(=O)O)C(=O)O)cc1` [Example 6, N-[4-[N-[2-(2,4-diamino-7H-pyrrolo[2,3-d]pyrimidin-5-yl)ethyl]-N-methyl]aminobenzoyl]-L-glutamic acid]: the IC₅₀ was 0.0013 µg/mL.
The same measure, in the same setting: next, `CN(CCC1CNc2nc(N)nc(N)c21)c1ccc(C(=O)N[C@@H](CCC(=O)O)C(=O)O)cc1` (stereo partly drawn) [Example 4, N-[4-[N-[2-(2,4-diamino-6,7-dihydro-5H-pyrrolo[2,3-d]pyrimidin-5-yl)ethyl]-N-methyl]aminobenzoyl]-L-glutamic acid]: 0.0025 µg/mL; `Nc1nc(N)c2c(n1)NCC2CCNc1ccc(C(=O)N[C@@H](CCC(=O)O)C(=O)O)cc1` (stereo partly shown) [Example 10]: 0.0025 µg/mL.
Take `CCCCCCCC(=O)Nc1nc(S)c2c(CNCc3ccc(C(=O)N[C@@H](CCC(=O)OCC)C(=O)OCC)cc3)c[nH]c2n1` [Example 13, diethyl N-[4-[N-(4-mercapto-2-octanoylamino-7H-pyrrolo[2,3-d]pyrimidin-5-ylmethyl)aminomethyl]benzoyl] -L-glutamate]: the IC50 (Homo sapiens, read-out: IC₅₀) stood at 5 ng/mL (≈ 7.8 nM).
